Results published in patent US20250277785A1, “MICROFLUIDIC DEVICES FOR EVALUATING FIBROSIS IN MATERIAL IMPLANTATION AND CANCER” (THE UNITED STATES OF AMERICA AS REPRESENTED BY THE …, priority 2022, published 2025).

Columns and labels:
[1] = tested on: primary mouse skin fibroblasts; assay: Scar-in-a-jar immunostaining, collagen deposition by fibroblasts in 2D; type: cell-based; conditions: media containing L-ascorbic acid, FICOLL and TGF-β1
Method: (§1) Inducing collagen deposition by fibroblasts in a two-dimensional model was studied. To determine whether L929 fibroblasts would deposit collagen in response to stimuli, well plate experiments were conducted following a protocol described in Good et al., “A High Content, Phenotypic ‘Scar-In-A-Jar’ Assay for Rapid Quantification of Collagen Fibrillogenesis Using Disease-Derived Pulmonary Fibroblasts,” BMC Biomedical Engineering, 1:14, 1-10 (2019), which is incorporated by reference herein in its entirety. Immunostaining experiments were carried out on L929 cells and primary mouse skin fibroblasts exposed to media containing L-ascorbic acid, FICOLL®, and TGF-β1. […] These findings indicate the relevance of and effects of cell type and L-ascorbic acid type on in vitro extracellular matrix deposition.

L929 cells = assay: as above; type: cell-based, mouse; conditions: media containing L-ascorbic acid, FICOLL and TGF-β1
Method: as §1

WI-38 human lung cells = assay: Picrosirius red staining of decellularized extracellular matrix; type: cell-based; conditions: Permanox plastic 4-chamber slides, 250,000 cells/chamber, with vs without L-ascorbic acid
Method: One method that can be used for visualization and quantification of collagen deposition in the microfluidic device is picrosirius red staining. […] Cells were grown in chambers with or without a fibronectin coating and with or without L-asorbic acid. […] In the absence of a fibronectin coating, no visible collagen deposition remained after 14-15 minutes of decellularization. […] Cells appear to deposit collagen fibers that are retained, even in the absence of a fibronectin coating, with a short decellularization time of five minutes. […]

[2] = tested on: L929 cells and primary mouse skin fibroblasts; assay: Scar-in-a-jar immunostaining, effect of L-ascorbic acid type; type: cell-based; conditions: cell type not specified for this statement
Method: as §1

RAW264.7 cells = assay: F-actin visualization of macrophage morphology; type: cell-based, mouse; conditions: increasing concentrations of LPS
Method: (§2) L929 mouse fibroblasts and RAW264.7 mouse macrophages were fluorescently labelled with red and green […]® (Thermo Fisher Scientific) dyes respectively. Extensive studies were conducted to optimize cell seeding density, culture times, and biomaterial implantation. Cells were co-cultured two-dimensionally or within microfluidic devices described in Example 1, after which cancer spheroids or alginate-based biomaterials were implanted within the two-dimensional cultures and within the microfluidic devices. Immunostaining, fluorescence microscopy, Griess assays, and histological analysis were used to evaluate immune cell activation and fibrosis formation in response to the spheroids and implants. Griess Assays were performed on media collected from cultured cells. […] Co-culture of RAW264.7 and L929 cells were visualized with […]® dyes. […] F-actin visualization for RAW264.7 cells treated with LPS was performed. […] Co-culture of L929 and RAW264.7 cells was performed in the microfluidic device. L929 cells were cultured in 3D within the Matrigel channel, while macrophages were introduced in 2D from an adjacent channel. After 24 hours of co-culture, the cells were primarily retained within their respective channels.

RAW264.7 macrophages = assay: Griess assay of nitrite production in media of cultured macrophages; type: cell-based, mouse; conditions: LPS stimulation of macrophages, 2D culture
Method: as §2

With “TGF-β1: transforming growth factor beta 1, stimulus for collagen deposition” the “Collagen I deposition in response to TGF-β1 treatment” value [1] was “Some increases”, the “α-SMA expression in response to TGF-β1 treatment” value [1] was “Some increases” and the “Collagen I deposition in response to TGF-β1 treatment” value (L929 cells) was “did not have increased Collagen I deposition”. For the same compound, the α-SMA expression (L929 cells) was “no α-SMA expression”.

In the case of `O=C1O[C@H]([C@@H](O)CO)C(O)=C1O` [L-ascorbic acid], the “collagen deposition (picrosirius red)” value (WI-38 human lung cells) is reported as “increase in collagen deposition” and the “effect of the type of L-ascorbic acid on Collagen I deposition” value [2] is reported as “had some effects”.

For lipopolysaccharide [LPS], the “morphological changes (F-actin visualization)” value (RAW264.7 cells) was “Morphological changes were observed” and the “macrophage activation, as indicated by nitrite production” value (RAW264.7 macrophages) was “led to macrophage activation”.
